system: secreted APP; experiment: ELISA for secreted APP in SHSY5Y cells; type: cell-based, human; conditions: Dose 0.08 uM, 16 hours
Protocol: (§1) An enzyme-linked immunosorbent assay was developed to detect secreted APP in SHSY5Y cells, a human neuroblastoma cell line. The purpose of the screen was to discover small molecules that inhibit APP protein synthesis in SHSY5Y cells. SHSY5Y cells were plated at 1×10^5 cells/well in […] of DMEM containing 0.5% heat inactivated FBS in 96 well tissue culture treated plates (Falcon no. 35 3072). 144 MES compounds were tested at final concentrations of […] in 0.1% DMSO. Compounds were added and the plates incubated for 16 hours at 37° C./5% CO2. Maxisorp plates (Nunc no. 437958) were coated overnight with […] capture antibody (Biosource 44-100) diluted in Ca^++ and Mg^++ free PBS. Biosource 44-100 is a mouse mAb that recognizes aa 1-100 of human APP. Plates were blocked for 30 minutes with 1 mg/mL BSA in Ca^++ and Mg^++ free PBS. Plates were washed 3× with wash buffer (Ca^++ and Mg^++ free PBS+0.01% Tween20). […] of supernatants and non-cultured medium controls were transferred from culture plates to ELISA plates. Culture plates were reserved for toxicity analysis. Supernatants were incubated for 4 hours at RT on a plate shaker. After supernatant incubation, plates were washed 3×. Primary antibody (Signet Clone 6E-10 biotin) was added at 0.3125 mg/mL and incubated overnight at 4° C. The recognition site of 6E-10 is aa 1-17 of Ab. For detection, a 1:3000 dilution of horseradish peroxidase conjugated streptavidin (Endogen no. N-100) was incubated for 30 minutes. Plates were washed 3×. Enzyme activity was assessed by incubation with […] TMB substrate solution (Moss no. TMB-US) for 20 minutes. The reaction was stopped by the addition of […] 0.18M sulfuric acid. Optical density was read at 450 nm on Wallac Victor2 plate reader. During the first incubation, toxicity was determined using MTS assay, Cell Titer96 AQ reagent (Promega no. G5430). The background values from the non-cultured medium control were subtracted from the sample values and secreted APP levels and toxicity were expressed as % vehicle control. Of the 144 MES compounds screened, 12 inhibited secreted APP as determined by ELISA. The results are depicted in FIGS. 13A-M.
(§2) Using the experimental procedure outlined above, APP secretion and toxicity studies were performed on several other non-carbamate compounds, and the results are shown in Tables 3 and 4. The compound structures are provided in Table 2 in the application, which are identified by their MES number.

Structure (SMILES)	APP Secretion by SH-SY-5Y Cells [% vehicle control]
CNC(C)c1cccc(OC)c1 (stereo not drawn) [MES 9271, 3-Methoxy-(1′-N-methylamino)-ethyl-benzene]	96.6

same assay, conditions: Dose 0.25 uM, 16 hours

Structure (SMILES)	APP Secretion by SH-SY-5Y Cells [% vehicle control]
CNC(C)c1cccc(OC)c1 (stereo not drawn) [MES 9271, 3-Methoxy-(1′-N-methylamino)-ethyl-benzene]	87.95

same assay, conditions: Dose 0.74 uM, 16 hours

Structure (SMILES)	APP Secretion by SH-SY-5Y Cells [% vehicle control]
CNC(C)c1cccc(OC)c1 (stereo not drawn) [MES 9271, 3-Methoxy-(1′-N-methylamino)-ethyl-benzene]	92.2

same assay, conditions: Dose 2 uM, 16 hours

Structure (SMILES)	APP Secretion by SH-SY-5Y Cells [% vehicle control]
C=CCO[C@H](c1ccnc2ccccc12)C1CC2CC[N+]1(Cc1c3ccccc3cc3ccccc13)CC2C=C.[Br-] (stereo partly drawn) [MES 9257]	111.2
CNC(C)c1cccc(OC)c1 (stereo not drawn) [MES 9271, 3-Methoxy-(1′-N-methylamino)-ethyl-benzene]	96.1
COc1ccc2c(c1)C(C)C(=O)N2C (stereo not drawn) [MES 9293]	97.8
COc1ccc2c(c1)[C@]1(C)CCNC1N2 (stereo partly drawn) [MES 9243]	88.95
COc1ccc2c(c1)[C@@]1(C)CCN(C)C1N2C (single isomer, unassigned; (+)) [MES 9295, (+)-O-Methyleseroline]	102.6
COc1ccc2c(c1)C1(C)CCSC1N2C (stereo not drawn) [MES 9301]	108.45
COC(=O)NCCC1C(=O)N(Cc2ccccc2)c2ccc(OC)cc21 (stereo not drawn) [MES 9317]	99.87
COc1ccc2c(c1)[C@]1(C)CCN(Cc3ccccc3)C1N2 (stereo partly drawn) [MES 9278]	118.4

same assay, conditions: Dose 6 uM, 16 hours

Structure (SMILES)	APP Secretion by SH-SY-5Y Cells [% vehicle control]
C=CCO[C@H](c1ccnc2ccccc12)C1CC2CC[N+]1(Cc1c3ccccc3cc3ccccc13)CC2C=C.[Br-] (stereo partly drawn) [MES 9257]	98.9
CNC(C)c1cccc(OC)c1 (stereo not drawn) [MES 9271, 3-Methoxy-(1′-N-methylamino)-ethyl-benzene]	89.9
COc1ccc2c(c1)C(C)C(=O)N2C (stereo not drawn) [MES 9293]	102.75
COc1ccc2c(c1)[C@]1(C)CCNC1N2 (stereo partly drawn) [MES 9243]	95.25
COc1ccc2c(c1)[C@@]1(C)CCN(C)C1N2C (single isomer, unassigned; (+)) [MES 9295, (+)-O-Methyleseroline]	95.7
COc1ccc2c(c1)C1(C)CCSC1N2C (stereo not drawn) [MES 9301]	106.1
COC(=O)NCCC1C(=O)N(Cc2ccccc2)c2ccc(OC)cc21 (stereo not drawn) [MES 9317]	112.3
COc1ccc2c(c1)[C@]1(C)CCN(Cc3ccccc3)C1N2 (stereo partly drawn) [MES 9278]	116.8

same assay, conditions: Dose 20 uM, 16 hours

Structure (SMILES)	APP Secretion by SH-SY-5Y Cells [% vehicle control]
C=CCO[C@H](c1ccnc2ccccc12)C1CC2CC[N+]1(Cc1c3ccccc3cc3ccccc13)CC2C=C.[Br-] (stereo partly drawn) [MES 9257]	99.03
CNC(C)c1cccc(OC)c1 (stereo not drawn) [MES 9271, 3-Methoxy-(1′-N-methylamino)-ethyl-benzene]	63.825
COc1ccc2c(c1)C(C)C(=O)N2C (stereo not drawn) [MES 9293]	94.45
COc1ccc2c(c1)[C@]1(C)CCNC1N2 (stereo partly drawn) [MES 9243]	100.55
COc1ccc2c(c1)[C@@]1(C)CCN(C)C1N2C (single isomer, unassigned; (+)) [MES 9295, (+)-O-Methyleseroline]	89.35
COc1ccc2c(c1)C1(C)CCSC1N2C (stereo not drawn) [MES 9301]	111.15
COC(=O)NCCC1C(=O)N(Cc2ccccc2)c2ccc(OC)cc21 (stereo not drawn) [MES 9317]	122
COc1ccc2c(c1)[C@]1(C)CCN(Cc3ccccc3)C1N2 (stereo partly drawn) [MES 9278]	120.6

system: SH-SY-5Y Cells; experiment: MTS toxicity assay in SHSY5Y cells; type: cell-based, human; conditions: Dose 0.08 uM
Protocol: as §1, §2

Structure (SMILES)	APP Toxicity SH-SY-5Y Cells (MTS assay) [% vehicle control]
CNC(C)c1cccc(OC)c1 (stereo not drawn) [MES 9271, 3-Methoxy-(1′-N-methylamino)-ethyl-benzene]	103.55

same assay, conditions: Dose 0.25 uM

Structure (SMILES)	APP Toxicity SH-SY-5Y Cells (MTS assay) [% vehicle control]
CNC(C)c1cccc(OC)c1 (stereo not drawn) [MES 9271, 3-Methoxy-(1′-N-methylamino)-ethyl-benzene]	103.45

same assay, conditions: Dose 0.74 uM

Structure (SMILES)	APP Toxicity SH-SY-5Y Cells (MTS assay) [% vehicle control]
CNC(C)c1cccc(OC)c1 (stereo not drawn) [MES 9271, 3-Methoxy-(1′-N-methylamino)-ethyl-benzene]	103.1

same assay, conditions: Dose 2 uM

Structure (SMILES)	APP Toxicity SH-SY-5Y Cells (MTS assay) [% vehicle control]
C=CCO[C@H](c1ccnc2ccccc12)C1CC2CC[N+]1(Cc1c3ccccc3cc3ccccc13)CC2C=C.[Br-] (stereo partly drawn) [MES 9257]	100.5
CNC(C)c1cccc(OC)c1 (stereo not drawn) [MES 9271, 3-Methoxy-(1′-N-methylamino)-ethyl-benzene]	99
COc1ccc2c(c1)C(C)C(=O)N2C (stereo not drawn) [MES 9293]	100.8
COc1ccc2c(c1)[C@]1(C)CCNC1N2 (stereo partly drawn) [MES 9243]	99.1
COc1ccc2c(c1)[C@@]1(C)CCN(C)C1N2C (single isomer, unassigned; (+)) [MES 9295, (+)-O-Methyleseroline]	101.15
COc1ccc2c(c1)C1(C)CCSC1N2C (stereo not drawn) [MES 9301]	99.15
COC(=O)NCCC1C(=O)N(Cc2ccccc2)c2ccc(OC)cc21 (stereo not drawn) [MES 9317]	97.27
COc1ccc2c(c1)[C@]1(C)CCN(Cc3ccccc3)C1N2 (stereo partly drawn) [MES 9278]	97.63

same assay, conditions: Dose 6 uM

Structure (SMILES)	APP Toxicity SH-SY-5Y Cells (MTS assay) [% vehicle control]
C=CCO[C@H](c1ccnc2ccccc12)C1CC2CC[N+]1(Cc1c3ccccc3cc3ccccc13)CC2C=C.[Br-] (stereo partly drawn) [MES 9257]	98.77
CNC(C)c1cccc(OC)c1 (stereo not drawn) [MES 9271, 3-Methoxy-(1′-N-methylamino)-ethyl-benzene]	99.475
COc1ccc2c(c1)C(C)C(=O)N2C (stereo not drawn) [MES 9293]	99.85
COc1ccc2c(c1)[C@]1(C)CCNC1N2 (stereo partly drawn) [MES 9243]	98.4
COc1ccc2c(c1)[C@@]1(C)CCN(C)C1N2C (single isomer, unassigned; (+)) [MES 9295, (+)-O-Methyleseroline]	100.4
COc1ccc2c(c1)C1(C)CCSC1N2C (stereo not drawn) [MES 9301]	97.35
COC(=O)NCCC1C(=O)N(Cc2ccccc2)c2ccc(OC)cc21 (stereo not drawn) [MES 9317]	97.23
COc1ccc2c(c1)[C@]1(C)CCN(Cc3ccccc3)C1N2 (stereo partly drawn) [MES 9278]	98.4

same assay, conditions: Dose 20 uM

Structure (SMILES)	APP Toxicity SH-SY-5Y Cells (MTS assay) [% vehicle control]
C=CCO[C@H](c1ccnc2ccccc12)C1CC2CC[N+]1(Cc1c3ccccc3cc3ccccc13)CC2C=C.[Br-] (stereo partly drawn) [MES 9257]	100
CNC(C)c1cccc(OC)c1 (stereo not drawn) [MES 9271, 3-Methoxy-(1′-N-methylamino)-ethyl-benzene]	94.1
COc1ccc2c(c1)C(C)C(=O)N2C (stereo not drawn) [MES 9293]	101.95
COc1ccc2c(c1)[C@]1(C)CCNC1N2 (stereo partly drawn) [MES 9243]	99
COc1ccc2c(c1)[C@@]1(C)CCN(C)C1N2C (single isomer, unassigned; (+)) [MES 9295, (+)-O-Methyleseroline]	99.85
COc1ccc2c(c1)C1(C)CCSC1N2C (stereo not drawn) [MES 9301]	95.9
COC(=O)NCCC1C(=O)N(Cc2ccccc2)c2ccc(OC)cc21 (stereo not drawn) [MES 9317]	93.5
COc1ccc2c(c1)[C@]1(C)CCN(Cc3ccccc3)C1N2 (stereo partly drawn) [MES 9278]	96.33

Source: patent publication US8691864B2, “Agents useful for reducing amyloid precursor protein and treating dementia and methods of use thereof” (priority 2000, dated 2014)
